Source: patent US20090176839A1, “FORMULATIONS OF 3-(6-(1-(2,2-DIFLUOROBENZO[D][1,3]DIOXOL-5-YL) CYCLOPROPANECARBOXAMIDO)-3-METHYLPYRIDIN-2-YL)BENZOIC ACID” (priority 2007, published 2009)
Like-named read-outs stand apart in the source and are kept apart here.

Key:
[1] = Stability of 6 mg/mL aqueous methylcellulose-polysorbate 80 suspension (HPLC, XRPD, NMR); type: physicochemical; settings: for Peak purity %: 6 mg/mL aqueous methylcellulose-polysorbate 80 suspension, room temperature
Description: Methylcellulose (0.5 g) was combined with 99.0 g of purified water in a beaker and stirred in a 60-70° C. water bath for 30′-1 hr. The solution was stirred in a 0° C. ice/water bath for another 30′ or until clear. Polysorbate 80 (0.5 g) was added and stirring at room temperature followed for 30′-1 hr or until a clear solution was obtained.
The desired amount of 0.5% methylcellulose and 0.5% polysorbate 80 stock solution for making a 6 mg/mL based on free base (6.48 mg/mL based on HCl salt) was transferred into the vial and sonicated for 20 minutes with alternate stirring for 1-2 minutes. The solution was homogenized for approximately 1-2 minutes.
As with 0.5% methylcellulose formulation prepared previously, the HCl salt was quickly converted to Compound 1 in Form I at T(0) resulting in a crystalline free form suspension as shown by XRPD (FIG. 10) and confirmed by ^1H NMR analysis (FIGS. 11-13). Additionally, the solid form in suspension at T(0) was recovered an subjected to HPLC analysis: […]

[2] = Oral pharmacokinetics of Compound 1 in fed or fasted male dogs at 10 mg/kg; type: in vivo, male beagle dogs; settings: for concentration at 48 hr: oral, read-out: Clast
Description: Non-validated research grade assays were used for these analyses. All pharmacokinetic studies were conducted using fed animals unless otherwise specified.
The oral pharmacokinetics of Compound 1 were determined under fed and fasted conditions in male beagle dogs following a single 10 mg/kg administration (Table 6). […] The tmax occurred sooner after administration in the fasted state (1.5 hours) than in the fed state (2.7 hours). The variability of the systemic exposure of Compound 1 was higher under fed conditions (CV of 67% for AUC0-INF) than under fasted conditions (CV of 27% for AUC0-INF), possibly due to changes in stomach emptying time under fed conditions.

[3] = male, beagle, dog, plasma, po, 10 mg/kg, male dogs, Fasted
[4] = male, beagle, dog, plasma, po, 10 mg/kg, male dogs, Fed

Compound: Cc1ccc(NC(=O)C2(c3ccc4c(c3)OC(F)(F)O4)CC2)nc1-c1cccc(C(=O)O)c1 [Compound 1, 3-(6-(1-(2,2-difluorobenzo[d][1,3]dioxol-5-yl)cyclopropanecarboxamido)-3-methylpyridin-2-yl)benzoic acid]
- degradation peaks by HPLC [1]: No major degradation peaks were detected
- Peak purity % ([1]; T(0)): 98.81%
- Peak purity % ([1]; T(24 h)): 98.24%
- chemically stable, time ([1]; 24 h, 6 mg/mL): at least 24 hrs
- clearance ([2]; dog): very low clearance
- F ([2]; male dogs, 10 mg/kg, Fasted): 53%
- tlast ([2]; male dogs, 10 mg/kg, Fasted): 48 h
- F ([2]; male dogs, 10 mg/kg, Fed): 53%
- tlast ([2]; male dogs, 10 mg/kg, Fed): 48 h
- concentration at 48 hr ([2]; male, beagle, dog, plasma, 10 mg/kg, male dogs, 10 mg/kg, Fasted): 66 ng/mL
- concentration at 48 hr ([2]; male, beagle, dog, plasma, 10 mg/kg, male dogs, 10 mg/kg, Fed): 47 ng/mL
- half-life ([2]; male, beagle, dog, plasma, po, 10 mg/kg, male dogs, 10 mg/kg, Fasted, read-out: t1/2 (converted)): 378 min
- half-life ([2]; male, beagle, dog, plasma, po, 10 mg/kg, male dogs, 10 mg/kg, Fed, read-out: t1/2 (converted)): 396 min
- AUC(0-inf) [2, 3]: 35800 ng·h/mL
- Cmax [2, 3]: 7900 ng/mL
- Tmax [2, 3]: 1.5 h
- AUC(0-inf) [2, 4]: 35700 ng·h/mL
- Cmax [2, 4]: 4100 ng/mL
- Tmax [2, 4]: 2.7 h
- half-life ([2]; male, beagle, dog, plasma, po, administered orally to dogs, read-out: half-life): 300 to 540 min
- bioavailability ([2]; male, beagle, plasma, po, dog, 10 mg/kg orally in a methylcellulose suspension): 53%
